The text below walks through data of patent publication US20230416782A1, “ENHANCED NANOPARTICLE DELIVERY SYSTEMS” (Children's Hospital Medical Center, priority 2020, published 2023).

Structures are written as SMILES.

In one experiment the test system is HeLa cells. As to the kind of experiment: luciferase DNP transfection of HeLa cells with drug given before, with or after the DNPs (luciferase activity, light-based assay). Format: cell-based. As to conditions: drug four hours before, at the same time as, or four hours after luciferase DNPs, versus DNP alone. The procedure:
HeLa cells were transfected with luciferase DNPs either four hours after cells were treated with drug, at the same time as cells were treated with drug, or four hours before cells were treated with drug; DNP alone, RX001 (roscovitine), RX011 (spermine), and RX008 (ruxolitinib).
HeLa cells were transfected with luciferase DNPs either four hours after cells were treated with drug, at the same time as cells were treated with drug, or four hours before cells were treated with drug, DNP alone, RX012 (doxorubicin), RX013 (acetohexamide), and RX014 (sildenafil citrate).
FIG. 12. […] HeLa cell were treated for four hours prior to luciferase DNP administration. Drugs were obtained from a blinded plate. Labels on graphs indicate drugs position on blinded plate. *: p<0.05, **: p<0.01, ***: p<0.001, ***: p<0.0001, compared to DNP Alone group.
(§1) FIG. 17 depicts pharmacological manipulations before, after, and during DNP transfection. Hela cells were given roscovitine (1 μM, CDK1 inhibitor), spermine (1 μM, CKII activator), or ruxolitinib (0.1 μM, JAK inhibitor) at various times during transfection of luciferase DNPs. A. Hela cells were dosed with drugs for 4 hours, washed, and then given luciferase DNPs for 24 hours. B. Hela cells were simultaneously given drug and luciferase DNPs for 24 hr. C. Hela cells were given luciferase DNPs for 4 hours, washed, and then given drug for 24 hr. All cells were then lysed and analyzed for luciferase activity with a light-based assay. (n=8 for each group, signifies p<0.05 and signifies p<0.001).
as §1, with “Hela” for “FIG. 17 depicts pharmacological manipulations before, after, and during DNP transfection. Hela”, “group, mean and SEM shown,” for “group,”, “p<0.001)” for “p<0.001).”

Experiment [1] has as its system luciferase DNP gene transfer. Briefly: in vivo luciferase DNP gene transfer, drug dosed 2 hours before intratracheal DNP (BLI total photons and lung luciferase activity). As to conditions: for enhancement of in vivo DNP transfection over time (BLI): 2, 3, 7 and 14 days after DNP; for enhancement of in vivo DNP transfection over time (BLI) / DNP gene delivery efficacy in vivo (BLI total photons and lung luciferase activity): roscovitine 10 mg/kg, spermine 20 mg/kg, ruxolitinib 1 mg/kg, 2 hours prior to intratracheal 100 μg luciferase DNP; for DNP gene delivery efficacy in vivo (BLI total photons and lung luciferase activity): 14 days post DNP administration; for luciferase gene transfer in vivo, Bioluminescent Image (BLI) analysis: day 2, day 3, day 7 and day 14, compared to DNP Alone group; for total photons over a 10 min BLI exposure from the chest ROI, difference from the DNP alone group: day 14 after DNP, spermine 20 mg/kg (P<0.5), roscovitine 10 mg/kg (p<0.01), dosed 2 hours prior to intratracheal 100 μg luciferase DNP; for luciferase gene transfer in vivo, BLI image analysis and luciferase activity assay: versus DNP alone.
Procedure: Total photon measurements were taken from the chest of each mouse, ROI outlined in red, and background luminescence was subtracted from mice saline control mice (not shown). B. Total photons collected over a 10 min BLI exposure from the ROI at each day.
All data was collected 14 days post DNP administration. […] The ROI, outlined in red, was consistently drawn on each mouse and used to quantify total photons in each mouse. B. Total photons collected over a 10 min BLI exposure from the ROI. Mice that received saline instead of DNPs (not shown) were used to subtract background from the experimental mice. […] Lungs from mice used in B were harvested immediately after BLI imaging and assayed for luciferase activity. (n>10 for each group, p<0.05, p<0.01, p<0.001)
All data was collected 14 days post DNP administration. […] The ROI, outlined in red, was consistently drawn on each mouse and used to quantify total photons in each mouse. B. Total photons collected over a 10 min BLI exposure from the ROI. Mice that received saline instead of DNPs (not shown) were used to subtract background from the experimental mice. […] Lungs from mice used in B were harvested immediately after BLI imaging and assayed for luciferase activity. (n>10 for each group, mean and SEM shown, p<0.05, p<0.01, p<0.001)

A further experiment deals with hCFTR gene transfer. Briefly: in vivo hCFTR gene transfer by DNP with drug (CFTR expression, PCR). Further details: species or system mice. The conditions noted are these: 2, 4 and 7 days post-DNP administration; versus DNP alone. The source says: FIG. 16. Gene transfer of hCFTR is enhanced by pharmacologic manipulation of interactome proteins. DMP alone, RX001 (roscovitine), and RX008 (ruxolitinib), 2 days post-DNP administration, 4 days post-DNP administration and 7 days post-DNP administration.
FIG. 22. CFTR Expression comparison between NHBE cells (normal human bronchial/tracheal epithelial cells), Untreated Mice and Day 2 DNP Treated Mice, and CFTR Expression comparison in Day 4 mice treated with a vehicle (DNP Alone) or drug. Day 4 data represents vector subtracted values for the PCR of CFTR.

`CC[C@H](CO)Nc1nc(NCc2ccccc2)c2ncn(C(C)C)c2n1` [RX001, Roscovitine]: the “gene transfer of luciferase in vitro” value in the experiment on HeLa cells is on record as “enhanced”. For the same compound, in experiment [1], the “enhancement of in vivo DNP transfection over time (BLI)” value (from here on “enhancement … over time (BLI)”) was “maintained over time”; the “DNP gene delivery efficacy in vivo (BLI total photons and lung luciferase activity)” value (from here on “DNP gene delivery efficacy in vivo”) was “enhancement”; the “luciferase gene transfer in vivo, Bioluminescent Image (BLI) analysis” value (“luciferase gene transfer … (BLI) analysis” for short) was “enhances”; the “total photons over a 10 min BLI exposure from the chest ROI, difference from the DNP alone group” value is recorded as “significantly different”. The “luciferase gene transfer in vivo, BLI image analysis and luciferase activity assay” value in experiment [1] is “enhances”. The “gene transfer of hCFTR” value with hCFTR gene transfer is recorded as “enhanced”.

Regarding `N#CC[C@H](C1CCCC1)n1cc(-c2ncnc3[nH]ccc23)cn1` [RX008, Ruxolitinib], the “gene transfer of luciferase in vitro” value in the experiment with HeLa cells was “enhanced”. Further, in experiment [1], the “enhancement … over time (BLI)” value was “maintained over time”; the “DNP gene delivery efficacy in vivo” value is “enhancement”; the “luciferase gene transfer … (BLI) analysis” value is listed as “enhances”; the “luciferase gene transfer in vivo, BLI image analysis and luciferase activity assay” value was “enhances”. The “gene transfer of hCFTR” value in the experiment on hCFTR gene transfer is “enhanced”.

Take `NCCCNCCCCNCCCN` [RX011, Spermine]: the “gene transfer of luciferase in vitro” value in the experiment with HeLa cells is recorded as “enhanced”. In experiment [1], the “enhancement … over time (BLI)” value is reported as “maintained over time”; the “DNP gene delivery efficacy in vivo” value is “enhancement”; the “luciferase gene transfer … (BLI) analysis” value is recorded as “enhances”; the “total photons over a 10 min BLI exposure from the chest ROI, difference from the DNP alone group” value is “significantly different”. In addition, the “luciferase gene transfer in vivo, BLI image analysis and luciferase activity assay” value in experiment [1] is on record as “enhances”.

As to `COc1cccc2c1C(=O)c1c(O)c3c(c(O)c1C2=O)C[C@@](O)(C(=O)CO)C[C@@H]3O[C@H]1C[C@H](N)[C@H](O)[C@H](C)O1` [RX012, Doxorubicin], the “gene transfer of luciferase in vitro” value in the experiment with HeLa cells is recorded as “enhanced”.

Turning to `CC(=O)c1ccc(S(=O)(=O)NC(=O)NC2CCCCC2)cc1` [RX013, Acetohexamide], the “gene transfer of luciferase in vitro” value with HeLa cells is on record as “enhanced”.

Take `CCCc1nn(C)c2c(=O)nc(-c3cc(S(=O)(=O)N4CCN(C)CC4)ccc3OCC)[nH]c12` [RX014, Sildenafil]: the “gene transfer of luciferase in vitro” value with HeLa cells is recorded as “enhanced”.
